For 27 compounds, GI50 results are on record in patent US20250221998A1, “DISCOVERY OF COVALENT EGFR INHIBITOR THROUGH CYSTEINE 775” (Dana-Farber Cancer Institute, Inc., priority 2022, published 2025).

Bounds are passed on as bounds.

The target of experiment [1] is EGFR mutant L858R Ba/F3 cells (Homo sapiens, UniProt P00533, L858R, cells depend on it). Put plainly: Ba/F3 cell proliferation (Cell Titer Glo), EGFR L858R. To be noted: 72 hours exposure, read-out: L858R BaF3 (μM), inhibitory activity against EGFR mutants. In kind it is cell-based, murine. Summed up: (§1)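 Ba/F3 cells stably expressing retrovirally transduced EGFR L858R, L858R/C797S or L858R/C775S, puromycin-selected. Compound exposure 72 hours in triplicate; viability by Cell Titer Glo ATP luminescence.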
EGFR mutant L858R Ba/F3 cells, sequence (P00533 whole entry L858R): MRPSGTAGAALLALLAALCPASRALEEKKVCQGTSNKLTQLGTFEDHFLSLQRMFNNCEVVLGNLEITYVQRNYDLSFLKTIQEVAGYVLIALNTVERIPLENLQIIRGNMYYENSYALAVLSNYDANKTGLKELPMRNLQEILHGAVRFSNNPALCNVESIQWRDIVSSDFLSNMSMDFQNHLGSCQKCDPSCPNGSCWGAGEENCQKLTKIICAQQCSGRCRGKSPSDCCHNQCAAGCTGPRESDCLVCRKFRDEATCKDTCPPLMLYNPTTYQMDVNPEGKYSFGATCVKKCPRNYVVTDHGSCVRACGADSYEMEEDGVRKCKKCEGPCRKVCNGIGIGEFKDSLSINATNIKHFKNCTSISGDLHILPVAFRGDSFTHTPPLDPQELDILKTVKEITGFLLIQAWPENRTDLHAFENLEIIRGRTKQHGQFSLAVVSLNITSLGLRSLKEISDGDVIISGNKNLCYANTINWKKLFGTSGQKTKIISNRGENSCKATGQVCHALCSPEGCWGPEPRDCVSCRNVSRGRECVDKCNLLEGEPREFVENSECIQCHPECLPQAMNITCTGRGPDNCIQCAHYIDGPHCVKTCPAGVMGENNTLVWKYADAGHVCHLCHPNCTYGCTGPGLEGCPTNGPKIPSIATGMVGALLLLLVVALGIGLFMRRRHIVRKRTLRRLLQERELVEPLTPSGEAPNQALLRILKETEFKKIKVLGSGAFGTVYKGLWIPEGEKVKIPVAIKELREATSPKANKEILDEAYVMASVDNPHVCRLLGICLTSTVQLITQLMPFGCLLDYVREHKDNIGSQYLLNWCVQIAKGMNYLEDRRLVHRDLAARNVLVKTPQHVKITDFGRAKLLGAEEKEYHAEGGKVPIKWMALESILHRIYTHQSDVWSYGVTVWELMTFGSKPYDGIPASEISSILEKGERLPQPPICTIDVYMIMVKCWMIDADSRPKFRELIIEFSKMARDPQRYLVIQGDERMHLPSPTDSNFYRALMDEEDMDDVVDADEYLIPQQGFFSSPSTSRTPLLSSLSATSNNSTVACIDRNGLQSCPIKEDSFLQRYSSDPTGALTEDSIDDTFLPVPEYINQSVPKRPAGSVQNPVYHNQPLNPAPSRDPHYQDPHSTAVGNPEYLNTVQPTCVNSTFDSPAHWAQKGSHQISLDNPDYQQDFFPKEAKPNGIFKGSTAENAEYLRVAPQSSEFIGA
In general terms: ATP-based viability assays read luminescence as a measure of living cells.

For experiment [2], the target named is EGFR L858R/C797S Ba/F3 cells (Homo sapiens, UniProt P00533, C797S/L858R, cells depend on it). Put plainly: Ba/F3 cell proliferation (Cell Titer Glo), EGFR L858R/C797S. In kind it is cell-based, murine. To be noted: 72 hours exposure, read-out: L858R/C797S (μM), inhibitory activity against EGFR mutants. Summed up: as §1
EGFR L858R/C797S Ba/F3 cells, sequence (P00533 whole entry C797S/L858R): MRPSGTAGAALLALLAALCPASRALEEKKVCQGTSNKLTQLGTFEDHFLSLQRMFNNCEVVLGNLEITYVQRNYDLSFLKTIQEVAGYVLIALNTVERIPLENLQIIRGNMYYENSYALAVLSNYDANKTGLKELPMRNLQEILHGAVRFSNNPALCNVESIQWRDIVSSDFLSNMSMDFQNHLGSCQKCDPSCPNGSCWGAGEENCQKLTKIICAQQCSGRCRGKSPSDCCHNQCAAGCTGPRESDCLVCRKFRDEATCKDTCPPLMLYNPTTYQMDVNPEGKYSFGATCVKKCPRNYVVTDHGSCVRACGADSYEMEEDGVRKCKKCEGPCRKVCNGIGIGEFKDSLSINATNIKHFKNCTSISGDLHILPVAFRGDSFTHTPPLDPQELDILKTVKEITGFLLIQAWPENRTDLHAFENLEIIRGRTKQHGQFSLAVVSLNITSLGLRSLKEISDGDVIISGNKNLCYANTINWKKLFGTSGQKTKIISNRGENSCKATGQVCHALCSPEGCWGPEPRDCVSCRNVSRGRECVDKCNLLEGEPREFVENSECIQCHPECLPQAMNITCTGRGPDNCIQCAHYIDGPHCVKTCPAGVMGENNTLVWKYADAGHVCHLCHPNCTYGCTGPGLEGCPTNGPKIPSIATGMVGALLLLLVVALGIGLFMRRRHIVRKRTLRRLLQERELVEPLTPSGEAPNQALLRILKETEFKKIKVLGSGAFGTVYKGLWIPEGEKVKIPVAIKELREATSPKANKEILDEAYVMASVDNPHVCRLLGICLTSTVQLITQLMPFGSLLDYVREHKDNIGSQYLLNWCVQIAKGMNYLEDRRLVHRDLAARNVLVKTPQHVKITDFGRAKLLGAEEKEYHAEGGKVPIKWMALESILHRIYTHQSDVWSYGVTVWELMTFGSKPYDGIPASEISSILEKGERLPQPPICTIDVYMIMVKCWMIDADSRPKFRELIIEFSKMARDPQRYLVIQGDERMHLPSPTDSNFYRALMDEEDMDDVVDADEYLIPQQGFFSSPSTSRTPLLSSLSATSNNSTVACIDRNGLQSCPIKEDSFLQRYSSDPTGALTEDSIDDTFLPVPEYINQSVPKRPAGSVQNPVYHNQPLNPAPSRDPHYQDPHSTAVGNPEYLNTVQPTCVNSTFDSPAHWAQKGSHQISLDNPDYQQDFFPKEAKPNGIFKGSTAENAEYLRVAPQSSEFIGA

On to `C=CC(=O)N1CCN(c2cc3cnc(Nc4ccc(OCCN(C)C)cc4)nc3n(C)c2=O)c2cccc(OC)c21` [Compound 074], for which the GI50 in experiment [1] and in experiment [2] was no more than 0.25 µM each time.

In the case of `C=CC(=O)N1CCN(c2cc3cnc(Nc4ccc(CC5CN(S(C)(=O)=O)C5)cc4)nc3n(C)c2=O)c2cccc(C)c21` [Compound 048, 8-methyl-6-(5-methyl-4-prop-2-enoyl-2,3-dihydroquinoxalin-1-yl)-2-[4-[(1-methylsulfonylazetidin-3-yl)methyl]anilino]pyrido[2,3-d]pyrimidin-7-one], the GI50 in experiment [1] and in experiment [2] was no more than 0.25 µM in each case.

`C=CC(=O)N1CCN(c2cc3cnc(Nc4ccc(N5CCN(C)CC5)cc4OC)nc3n(C)c2=O)c2cccc(C)c21` [Compound 029]: the GI50 in experiment [1] and in experiment [2] was no more than 0.25 µM each time.

Consider `C=CC(=O)N1CCN(c2cc3cnc(Nc4cc5c(cc4F)CCN(C)C5)nc3n(C)c2=O)c2cccc(C)c21` [Compound 061, 2-[(6-fluoro-2-methyl-3,4-dihydro-1H-isoquinolin-7-yl)amino]-8-methyl-6-(5-methyl-4-prop-2-enoyl-2,3-dihydroquinoxalin-1-yl)pyrido[2,3-d]pyrimidin-7-one], for which the GI50 in experiment [1] and in experiment [2] was no more than 0.25 µM in each case.

`C=CC(=O)N1CCN(c2cc3cnc(NC)nc3n(-c3ccc(OCCN(C)C)cc3)c2=O)c2cccc(C)c21` [Compound 081, 8-[4-[2-(dimethylamino)ethoxy]phenyl]-2-(methylamino)-6-(5-methyl-4-prop-2-enoyl-2,3-dihydroquinoxalin-1-yl)pyrido[2,3-d]pyrimidin-7-one]: the GI50 in experiment [1] and in experiment [2] was no more than 0.25 µM each time.

In the case of `C=CC(=O)N1CCN(c2cc3cnc(Nc4ccc(N5CCN(C)CC5)cc4F)nc3n(C)c2=O)c2cccc(C)c21` [Compound 036], the GI50 in experiment [1] and in experiment [2] was no more than 0.25 µM each time.

`C=CC(=O)N1CCN(c2cc3cnc(Nc4ccc(OC5CN(C)C5)cc4)nc3n(C)c2=O)c2cccc(C)c21` [Compound 076]: the GI50 in experiment [1] and in experiment [2] was no more than 0.25 µM in each case.

On to `C=CC(=O)N1CCN(c2cc3cnc(Nc4ccc(N5CCN(C)CC5)cc4)nc3n(C)c2=O)C(c2ccccc2)C1` (stereo not drawn) [Compound 011, 8-methyl-2-[4-(4-methylpiperazin-1-yl)anilino]-6-(2-phenyl-4-prop-2-enoyl-piperazin-1-yl)pyrido[2,3-d]pyrimidin-7-one], for which the GI50 in experiment [1] and in experiment [2] was no less than 2.5 µM each time.

For `C=CC(=O)N1CCN(c2cc3cnc(N)nc3n(-c3ccc(N(C)CCN(C)C)cc3)c2=O)c2cccc(C)c21` [Compound 101, 2-amino-8-[4-[2-(dimethylamino)ethyl-methyl-amino]phenyl]-6-(5-methyl-4-prop-2-enoyl-2,3-dihydroquinoxalin-1-yl)pyrido[2,3-d]pyrimidin-7-one], the values for the GI50 in experiment [1] and in experiment [2] were 0.25 to 0.5 µM and 0.5 to 2.5 µM, respectively.

For `C=CC(=O)N1CCN(c2cc3cnc(Nc4ccccc4)nc3n(C3CC(OC)C3)c2=O)c2cccc(C)c21` (stereo not drawn) [Compound 084, 2-anilino-8-(3-methoxycyclobutyl)-6-(5-methyl-4-prop-2-enoyl-2,3-dihydroquinoxalin-1-yl)pyrido[2,3-d]pyrimidin-7-one], the GI50 in experiment [1] and in experiment [2] was no more than 0.25 µM each time.

For `C=CC(=O)N1CCN(c2c(F)c3cnc(Nc4ccc(N5CCN(C)CC5)cc4)nc3n(C)c2=O)c2cccc(C)c21` [Compound 054, 5-fluoro-8-methyl-2-[4-(4-methylpiperazin-1-yl)anilino]-6-(5-methyl-4-prop-2-enoyl-2,3-dihydroquinoxalin-1-yl)pyrido[2,3-d]pyrimidin-7-one], the GI50 in experiment [1] and in experiment [2] was no more than 0.25 µM throughout.

As for `C=CC(=O)N1CCN(c2cc3cnc(Nc4ccc(OCCN(C)C)cc4)nc3n([C@H]3C[C@@H](O)C3)c2=O)c2cccc(C)c21` [Compound 043], the GI50 in experiment [1] and in experiment [2] was no more than 0.25 µM in each case.

Turning to `C=CC(=O)N1CCN(c2cc3cnc(Nc4ccc(N5CCN(C)CC5)cc4)nc3n(C)c2=O)C(=O)C1` [Compound 025, 8-methyl-2-[4-(4-methylpiperazin-1-yl)anilino]-6-(2-oxo-4-prop-2-enoyl-piperazin-1-yl)pyrido[2,3-d]pyrimidin-7-one], the GI50 in experiment [1] and in experiment [2] was no less than 2.5 µM in each case.

Take `C=CC(=O)N1CCN(c2cc3cnc(Nc4ccc(OCCN(C)C)cc4)nc3n(C)c2=O)c2cccc(O)c21` [Compound 066, 2-[4-[2-(dimethylamino)ethoxy]anilino]-6-(5-hydroxy-4-prop-2-enoyl-2,3-dihydroquinoxalin-1-yl)-8-methyl-pyrido[2,3-d]pyrimidin-7-one]: the GI50 in experiment [1] and in experiment [2] was no more than 0.25 µM in each case.

In the case of `C=CC(=O)N1CCN(c2cc3cnc(N)nc3n(-c3ccc(OCCN(C)C)c(F)c3)c2=O)c2cccc(C)c21` [Compound 104, 2-amino-8-[4-[2-(dimethylamino)ethoxy]-3-fluoro-phenyl]-6-(5-methyl-4-prop-2-enoyl-2,3-dihydroquinoxalin-1-yl)pyrido[2,3-d]pyrimidin-7-one], the GI50 in experiment [1] and in experiment [2] was no more than 0.25 µM throughout.

As to `C=CC(=O)N1CCN(c2cc3cnc(N)nc3n(-c3ccc(N(C)CCOC)cc3)c2=O)c2cccc(C)c21` [Compound 099, 2-amino-8-[4-[2-methoxyethyl(methyl)amino]phenyl]-6-(5-methyl-4-prop-2-enoyl-2,3-dihydroquinoxalin-1-yl)pyrido[2,3-d]pyrimidin-7-one], the GI50 in experiment [1] and in experiment [2] was no more than 0.25 µM throughout.

Regarding `C=CC(=O)N1CCN(c2cc3cnc(Nc4ccc(OCCN(C)C)cc4)nc3n(C)c2=O)c2cc(O)ccc21` [Compound 078, 2-[4-[2-(dimethylamino)ethoxy]anilino]-6-(7-hydroxy-4-prop-2-enoyl-2,3-dihydroquinoxalin-1-yl)-8-methyl-pyrido[2,3-d]pyrimidin-7-one], the GI50 in experiment [1] and in experiment [2] was no more than 0.25 µM throughout.

As for `C=CC(=O)N1CCN(c2cc3cnc(N)nc3n(-c3ccc(CN4CCN(C)CC4)cc3)c2=O)c2cccc(C)c21` [Compound 103, 2-amino-8-[4-[(4-methylpiperazin-1-yl)methyl]phenyl]-6-(5-methyl-4-prop-2-enoyl-2,3-dihydroquinoxalin-1-yl)pyrido[2,3-d]pyrimidin-7-one], the GI50 lay in the range of 0.25 to 0.5 µM in experiment [1] and 0.5 to 2.5 µM in experiment [2].

As for `C=CC(=O)N1CCN(c2cc3cnc(Nc4ccc(OCCN(C)C)cc4)nc3n([C@H]3C[C@@](C)(O)C3)c2=O)c2cccc(C)c21` [Compound 056, 2-[4-[2-(dimethylamino)ethoxy]anilino]-8-((1s,3s)-3-hydroxy-3-methyl-cyclobutyl)-6-(5-methyl-4-prop-2-enoyl-2,3-dihydroquinoxalin-1-yl)pyrido[2,3-d]pyrimidin-7-one], the GI50 in experiment [1] and in experiment [2] was no more than 0.25 µM throughout.

Take `C=CC(=O)N1CCN(c2cc3cnc(Nc4cnn(CCS(C)(=O)=O)c4)nc3n(C)c2=O)c2cccc(C)c21` [Compound 041]: the GI50 in experiment [1] was no more than 0.25 µM; in experiment [2], 0.25 to 0.5 µM.

For the compound `C=CC(=O)N1CCN(c2cc3cnc(Nc4ccc5c(c4)CN(S(C)(=O)=O)CC5)nc3n(C)c2=O)c2cccc(C)c21` [Compound 035], the GI50 in experiment [1] and in experiment [2] was no more than 0.25 µM throughout.

For `C=CC(=O)N1CCN(c2cc3cnc(NC4CCC4)nc3n(-c3ccc(N(C)CCN(C)C)cc3)c2=O)c2cccc(C)c21` [Compound 102, 2-(cyclobutylamino)-8-[4-[2-(dimethylamino)ethyl-methyl-amino]phenyl]-6-(5-methyl-4-prop-2-enoyl-2,3-dihydroquinoxalin-1-yl)pyrido[2,3-d]pyrimidin-7-one], the GI50 in experiment [1] and in experiment [2] was no more than 0.25 µM in each case.

Turning to `C=CC(=O)N1CCN(c2cc3cnc(Nc4ccc(N5CCN(C)CC5)cc4)nc3n(C)c2=O)c2cccc(O)c21` [Compound 051, 6-(5-hydroxy-4-prop-2-enoyl-2,3-dihydroquinoxalin-1-yl)-8-methyl-2-[4-(4-methylpiperazin-1-yl)anilino]pyrido[2,3-d]pyrimidin-7-one], the GI50 in experiment [1] and in experiment [2] was no more than 0.25 µM in each case.

As to `C=CC(=O)N1CCN(c2cc3cnc(Nc4ccc(OCCN(C)C)cc4)nc3n(C3COC3)c2=O)c2cccc(C)c21` [Compound 060, 2-[4-[2-(dimethylamino)ethoxy]anilino]-6-(5-methyl-4-prop-2-enoyl-2,3-dihydroquinoxalin-1-yl)-8-(oxetan-3-yl)pyrido[2,3-d]pyrimidin-7-one], the GI50 in experiment [1] fell in the range of 0.25 to 0.5 µM; in experiment [2] it was 0.5 to 2.5 µM.

Regarding `C=CC(=O)N1CCN(c2cc3cnc(Nc4ccc(N5CCN(C)CC5)cc4)nc3n(-c3cccnc3)c2=O)c2cccc(C)c21` [Compound 052, 2-[4-(4-methylpiperazin-1-yl)anilino]-6-(5-methyl-4-prop-2-enoyl-2,3-dihydroquinoxalin-1-yl)-8-(3-pyridyl)pyrido[2,3-d]pyrimidin-7-one], the GI50 in experiment [1] and in experiment [2] was no more than 0.25 µM throughout.

Turning to `C=CC(=O)N1CCN(c2cc3cnc(Nc4ccc(OCCN(C)C)cc4)nc3n(C3CCOC3)c2=O)c2cccc(C)c21` (stereo not drawn) [Compound 072, 2-[4-[2-(dimethylamino)ethoxy]anilino]-6-(5-methyl-4-prop-2-enoyl-2,3-dihydroquinoxalin-1-yl)-8-tetrahydrofuran-3-yl-pyrido[2,3-d]pyrimidin-7-one], the GI50 in experiment [1] and in experiment [2] was no more than 0.25 µM throughout.

As to `C=CC(=O)N1CCN(c2cc3cnc(Nc4ccc(OCCN(C)C)cc4OC)nc3n(C)c2=O)c2cccc(C)c21` [Compound 068], the GI50 in experiment [1] and in experiment [2] was no more than 0.25 µM in each case.
